Experimental findings from PubChem BioAssay (NCI) are described below.

Some test systems named below: UACC-257 melanoma; SF-268 CNS; U251 CNS; OVCAR-5 ovarian; ACHN renal; SK-MEL-28 melanoma; LOX IMVI melanoma; UO-31 renal; OVCAR-3 ovarian; MALME-3M melanoma.
Holding throughout (test): NCI-60 cell line screen, 48 h

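These data come from cells grown in 96-well plates and exposed to compound for 48 hours at five concentrations. TGI is the concentration that stops growth completely.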

Consider `CCO[C@]12C[C@H](OC)[C@@]3(O)CC(C1[C@H]3OCc1ccccc1)C13C4C2[C@H](OC)C1[C@](COC)(CN4CC)[C@H](O)C[C@@H]3OC` (some centres not stated), for which the TGI with UACC-257 melanoma, with SF-268 CNS, with U251 CNS, in the experiment with OVCAR-5 ovarian, in the experiment on ACHN renal and in the experiment on SK-MEL-28 melanoma was greater than 100 µM in each case. In addition, the TGI with LOX IMVI melanoma and with UO-31 renal was greater than 100 µM each time.
In the case of `C=CCOC(=O)/C(=C\c1ccc(OC)c(OC)c1)c1ccc(OC)c(OC)c1`, the TGI with UACC-257 melanoma, in the experiment on SF-268 CNS, in the experiment with U251 CNS, in the experiment with OVCAR-5 ovarian, in the experiment with ACHN renal and with SK-MEL-28 melanoma was greater than 100 µM throughout. For the same compound, the figures for the TGI in the experiment with OVCAR-3 ovarian, in the experiment on UO-31 renal and with MALME-3M melanoma were greater than 100 µM, 80 µM and greater than 100 µM, respectively.
`CN(C)CCNC(=O)c1cccc2c(NCC(=O)O)c3ccccc3nc12`: the TGI with SF-268 CNS is 33.4 µM; in the experiment on U251 CNS, greater than 100 µM; with OVCAR-5 ovarian it was greater than 100 µM; in the experiment on ACHN renal it was greater than 100 µM; in the experiment with SK-MEL-28 melanoma it was 52.6 µM; with OVCAR-3 ovarian it was greater than 100 µM. Besides, the TGI in the experiment on LOX IMVI melanoma is greater than 100 µM; in the experiment on UO-31 renal it was greater than 100 µM; in the experiment with MALME-3M melanoma it was 35.9 µM.
Regarding `CC12NN=NC1C(=O)NC2=O` (configuration not stated), the TGI with UACC-257 melanoma, in the experiment on SF-268 CNS, in the experiment on U251 CNS, in the experiment on ACHN renal, with SK-MEL-28 melanoma and in the experiment with OVCAR-3 ovarian was greater than 100 µM in each case. Besides, the TGI in the experiment with LOX IMVI melanoma and in the experiment with UO-31 renal was greater than 100 µM each time.
As for `COc1ccccc1NC(=O)/C(Cc1nc2ccc([N+](=O)[O-])cc2[nH]c1=O)=N\NC(=O)C[N+](C)(C)C`, the TGI with UACC-257 melanoma, in the experiment on SF-268 CNS, in the experiment with U251 CNS, in the experiment on OVCAR-5 ovarian, in the experiment on ACHN renal and with SK-MEL-28 melanoma was greater than 100 µM throughout. Also, the TGI in the experiment with OVCAR-3 ovarian, with LOX IMVI melanoma and with UO-31 renal was greater than 100 µM in each case.
Take `O=C(O[C@H]1[C@@H](O)[C@H](n2cnc3c(Cl)ncnc32)O[C@@H]1COC(c1ccccc1)(c1ccccc1)c1ccccc1)c1ccccc1`: the TGI in the experiment on UACC-257 melanoma was 41.5 µM; in the experiment on SF-268 CNS, 61.3 µM; in the experiment with U251 CNS, 59.2 µM; in the experiment with OVCAR-5 ovarian it was greater than 100 µM; in the experiment on ACHN renal it was 31 µM; in the experiment with SK-MEL-28 melanoma it was greater than 100 µM. Also, the figures for the TGI in the experiment with OVCAR-3 ovarian, with LOX IMVI melanoma and with UO-31 renal were 35 µM, greater than 100 µM and 2.73 µM, respectively.
As to `O=C(c1ccccc1)c1ccc(COc2ccc(C(c3c(O)c4ccccc4oc3=O)c3c(O)c4ccccc4oc3=O)cc2)cc1`, the TGI with UACC-257 melanoma is 38.7 µM; in the experiment with SF-268 CNS, greater than 100 µM; in the experiment on U251 CNS, greater than 100 µM; in the experiment on OVCAR-5 ovarian, 38.9 µM; with ACHN renal, 38.1 µM; in the experiment on SK-MEL-28 melanoma it was 47.4 µM. Besides, the TGI in the experiment with OVCAR-3 ovarian amounted to 34.5 µM; in the experiment on LOX IMVI melanoma, 56.5 µM; with UO-31 renal, 77.3 µM.
With `CC1=NN(c2ccccc2)C(=O)/C1=C/c1ccc(O)cc1`, the TGI with UACC-257 melanoma, with SF-268 CNS, in the experiment on U251 CNS, in the experiment with OVCAR-5 ovarian, in the experiment with ACHN renal and in the experiment with SK-MEL-28 melanoma was greater than 100 µM throughout. Moreover, the TGI with OVCAR-3 ovarian, in the experiment with LOX IMVI melanoma and in the experiment with MALME-3M melanoma was greater than 100 µM throughout.
For `CCOC(=O)c1c(N2CCCC2)nsc1Nc1ccccc1`, the TGI in the experiment with UACC-257 melanoma, in the experiment with SF-268 CNS, in the experiment with OVCAR-5 ovarian, with ACHN renal, with SK-MEL-28 melanoma and in the experiment on LOX IMVI melanoma was greater than 100 µM each time. Besides, the TGI in the experiment with UO-31 renal and in the experiment on MALME-3M melanoma was greater than 100 µM throughout.
`CCCN(C(=O)c1c(Cl)nnc(Cl)c1C(=O)c1cc(Cl)nnc1Cl)c1cc(Cl)nnc1Cl`: the TGI is 42.1 µM in the experiment with UACC-257 melanoma; 20.2 µM in the experiment with SF-268 CNS; 33.3 µM in the experiment on U251 CNS; 41.2 µM in the experiment on OVCAR-5 ovarian; 25.5 µM with ACHN renal; 28.1 µM in the experiment on SK-MEL-28 melanoma. For the same compound, the values for the TGI in the experiment with OVCAR-3 ovarian, in the experiment with LOX IMVI melanoma and in the experiment on UO-31 renal were 26.6 µM, 18.5 µM and 33.2 µM, respectively.
Consider `CN(C)CCCNC(=O)N/N=C/c1cccc([N+](=O)[O-])c1`, for which the TGI in the experiment with UACC-257 melanoma, in the experiment with SF-268 CNS, in the experiment with U251 CNS, with ACHN renal, with SK-MEL-28 melanoma and in the experiment on OVCAR-3 ovarian was greater than 100 µM each time. The TGI in the experiment on LOX IMVI melanoma and in the experiment with MALME-3M melanoma was greater than 100 µM each time.
Regarding `COc1cc(OC)c(/C=C2\N=C(C)N(Nc3nnc(NN4C(=O)/C(=C/c5c(OC)cc(OC)cc5OC)N=C4C)c4ccccc34)C2=O)c(OC)c1`, the TGI with UACC-257 melanoma, with SF-268 CNS, in the experiment on U251 CNS, in the experiment with OVCAR-5 ovarian, with ACHN renal and in the experiment with SK-MEL-28 melanoma was greater than 100 µM in each case. Also, the TGI with LOX IMVI melanoma is greater than 100 µM.
Take `C=Cc1c(C)c(OC)cc2c1Oc1ccc(OC)c(C)c1CC2`: the TGI in the experiment with UACC-257 melanoma, in the experiment with SF-268 CNS, in the experiment on U251 CNS, in the experiment on OVCAR-5 ovarian, in the experiment with ACHN renal and in the experiment on SK-MEL-28 melanoma was greater than 100 µM each time. In addition, the TGI in the experiment with UO-31 renal and in the experiment on MALME-3M melanoma was greater than 100 µM in each case.
Regarding `CN(C)c1ccc(N=Nc2ccc3nc[nH]c3c2)cc1`, the TGI with UACC-257 melanoma is 59.5 µM; with SF-268 CNS, 54 µM; with U251 CNS, 76.4 µM; in the experiment with OVCAR-5 ovarian, 70.4 µM; in the experiment with ACHN renal, 37.6 µM; in the experiment on SK-MEL-28 melanoma, 25.6 µM. Besides, the TGI in the experiment on UO-31 renal turned out to be 65.9 µM; in the experiment with MALME-3M melanoma, 53 µM.
Take `Cc1n[nH]c(=O)c2cc(-c3ccccc3)[nH]c12`: the TGI in the experiment on UACC-257 melanoma, in the experiment with SF-268 CNS, with U251 CNS, in the experiment on OVCAR-5 ovarian, in the experiment on ACHN renal and in the experiment on OVCAR-3 ovarian was greater than 100 µM each time. Further, the TGI in the experiment on LOX IMVI melanoma, in the experiment with UO-31 renal and in the experiment on MALME-3M melanoma was greater than 100 µM throughout.
